Data on 25 molecules can be found in patent US20160297833A1, “THIENOPYRIMIDINES AS MKNK1 AND MKNK2 INHIBITORS” (BAYER PHARMA AKTIENGESELLSCHAFT, priority 2013, published 2016).

T1 sequence (Q9BUB5 1-424 isoform Q9BUB5-2 T344D): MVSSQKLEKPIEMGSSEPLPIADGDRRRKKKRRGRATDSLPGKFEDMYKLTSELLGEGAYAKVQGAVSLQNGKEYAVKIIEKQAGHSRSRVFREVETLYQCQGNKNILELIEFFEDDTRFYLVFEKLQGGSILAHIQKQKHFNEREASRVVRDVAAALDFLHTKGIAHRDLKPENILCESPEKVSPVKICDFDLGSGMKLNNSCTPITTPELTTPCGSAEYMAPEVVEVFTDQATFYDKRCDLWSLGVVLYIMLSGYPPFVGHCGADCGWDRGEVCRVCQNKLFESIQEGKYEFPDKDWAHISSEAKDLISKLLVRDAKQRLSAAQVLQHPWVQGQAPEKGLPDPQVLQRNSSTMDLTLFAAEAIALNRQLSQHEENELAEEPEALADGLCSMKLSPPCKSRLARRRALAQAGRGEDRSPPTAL

One assay addresses T1, human full-length MKNK1 (Homo sapiens, UniProt Q9BUB5, T385D).
T1 construct: GST (N); purchased Carna Biosciences 02-145; host or cells: insect cells (baculovirus expression system)
In words: MKNK1 kinase high ATP assay (TR-FRET). The class given is biochemical. Particulars: Table 1; MKNK1 kinase high ATP assay, 2 mM ATP; read-out: MKNK1 IC50. An outline of the steps:
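Full-length human MKNK1 (T385D) preincubated 15 min at 22 °C with compound in HEPES pH 7.5/MgCl2/DTT buffer; reaction with 2 mM ATP (final) and 0.06 μM biotinylated peptide (final), 30 min at 22 °C.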
(Time-resolved FRET reads energy transfer from a long-lived donor to a nearby acceptor.)
For orientation: IC50 means the concentration at which inhibition is half-maximal. Turning to `COc1cc2[nH]ncc2cc1Nc1ncnc2sc3c(c12)CC[C@H](C(=O)N1CC[C@H](N(C)C)C1)C3` [Example 45, [(3S)-3-(Dimethylamino)pyrrolidin-1-yl]{(7S)-4-[(6-methoxy-1H-indazol-5-yl)amino]-5,6,7,8-tetrahydro[1]benzothieno[2,3-d]pyrimidin-7-yl}methanone], the IC50 stood at 0.2 nM.

Regarding `CC(C)Oc1cc2[nH]ncc2cc1Nc1ncnc2sc3c(c12)CC[C@H](C(=O)N1CC2(COC2)C1)C3` [Example 88, 2-Oxa-6-azaspiro[3.3]hept-6-yl[(7S)-4-{[6-(propan-2-yloxy)-1H-indazol-5-yl]amino}-5,6,7,8-tetrahydro[1]benzothieno[2,3-d]pyrimidin-7-yl]methanone], the half-inhibitory concentration (IC50) was determined as 0.4 nM.

`CN(C)C(=O)[C@H]1CCc2c(sc3ncnc(Nc4cc5cn[nH]c5cc4OC4CCCC4)c23)C1` [Example 199, (7S)-4-{[6-(Cyclopentyloxy)-1H-indazol-5-yl]amino}-N,N-dimethyl-5,6,7,8-tetrahydro[1]benzothieno[2,3-d]pyrimidine-7-carboxamide]: the half-maximal inhibitory concentration (IC50) turned out to be 0.2 nM.

As to `C[C@H]1COCCN1C(=O)[C@H]1CCc2c(sc3ncnc(Nc4cc5cn[nH]c5cc4OCCN4CCCCC4)c23)C1` [Example 119, [(3S)-3-Methylmorpholin-4-yl][(7S)-4-({6-[2-(piperidin-1-yl)ethoxy]-1H-indazol-5-yl}amino)-5,6,7,8-tetrahydro[1]benzothieno[2,3-d]pyrimidin-7-yl]methanone], the IC50 was found to be 757 nM.

`C[C@H]1COCCN1C(=O)[C@H]1CCc2c(sc3ncnc(Nc4cc5cn[nH]c5cc4OCCN(C)C)c23)C1` [Example 117, [(7S)-4-({6-[2-(Dimethylamino)ethoxy]-1H-indazol-5-yl}amino)-5,6,7,8-tetrahydro[1]benzothieno[2,3-d]pyrimidin-7-yl][(3S)-3-methylmorpholin-4-yl]methanone]: the half-maximal inhibitory concentration (IC50) was 20 nM.

For the molecule `CN(C)C(=O)[C@H]1CCc2c(sc3ncnc(Nc4cc5cn[nH]c5cc4OC4CCCCC4)c23)C1` [Example 202, (7S)-4-{[6-(Cyclohexyloxy)-1H-indazol-5-yl]amino}-N,N-dimethyl-5,6,7,8-tetrahydro[1]benzothieno[2,3-d]pyrimidine-7-carboxamide], the 50% inhibitory concentration (IC50) was determined as 1 nM.

As for `CCOc1cc2[nH]ncc2cc1Nc1ncnc2sc3c(c12)CC[C@H](C(=O)N(C)CC(C)(C)O)C3` [Example 74, (7S)-4-[(6-Ethoxy-1H-indazol-5-yl)amino]-N-(2-hydroxy-2-methylpropyl)-N-methyl-5,6,7,8-tetrahydro[1]benzothieno[2,3-d]pyrimidine-7-carboxamide], the IC50 stood at 0.2 nM.

For the molecule `C[C@@H](N)COc1cc2[nH]ncc2cc1Nc1ncnc2sc3c(c12)CC[C@H](C(=O)N1CCOC[C@@H]1C)C3` [Example 149, {(7S)-4-[(6-{[(2R)-2-Aminopropyl]oxy}-1H-indazol-5-yl)amino]-5,6,7,8-tetrahydro[1]benzothieno[2,3-d]pyrimidin-7-yl}[(3S)-3-methylmorpholin-4-yl]methanone], the IC50 came to 5.2 nM.

`C[C@H]1CN(C(=O)[C@H]2CCc3c(sc4ncnc(Nc5cc6cn[nH]c6cc5Cl)c34)C2)C[C@H](C)O1` [Example 229, {(7S)-4-[(6-Chloro-1H-indazol-5-yl)amino]-5,6,7,8-tetrahydro[1]benzothieno[2,3-d]pyrimidin-7-yl}[(2S,6S)-2,6-dimethylmorpholin-4-yl]methanone]: the IC50 came out at 4.3 nM.

`CC(C)Oc1cc2[nH]ncc2c(F)c1Nc1ncnc2sc3c(c12)CC[C@H](C(=O)N(C)C)C3` [Example 129, (7S)-4-{[4-Fluoro-6-(propan-2-yloxy)-1H-indazol-5-yl]amino}-N,N-dimethyl-5,6,7,8-tetrahydro[1]benzothieno[2,3-d]pyrimidine-7-carboxamide]: the IC50 was 8.9 nM.

Regarding `CC(C)Oc1cc2[nH]ncc2cc1Nc1ncnc2sc3c(c12)CC[C@H](C(=O)N(C)CC(F)F)C3` [Example 81, (7S)—N-(2,2-Difluoroethyl)-N-methyl-4-{[6-(propan-2-yloxy)-1H-indazol-5-yl]amino}-5,6,7,8-tetrahydro[1]benzothieno[2,3-d]pyrimidine-7-carboxamide], the IC50 was determined as 0.3 nM.

With `CC(C)Oc1cc2[nH]ncc2cc1Nc1ncnc2sc3c(c12)CC[C@H](C(=O)N1C[C@@H](C)O[C@@H](C)C1)C3` [Example 160, [(2R,6S)-2,6-dimethylmorpholin-4-yl][(7S)-4-{[6-(propan-2-yloxy)-1H-indazol-5-yl]amino}-5,6,7,8-tetrahydro[1]benzothieno[2,3-d]pyrimidin-7-yl]methanone], the half-maximal inhibitory concentration (IC50) was 1.2 nM.

With `COCCN(C)C(=O)[C@H]1CCc2c(sc3ncnc(Nc4cc5cn[nH]c5cc4F)c23)C1` [Example 222, (7S)-4-[(6-Fluoro-1H-indazol-5-yl)amino]-N-(2-methoxyethyl)-N-methyl-5,6,7,8-tetrahydro[1]benzothieno[2,3-d]pyrimidine-7-carboxamide], the IC50 is 3.2 nM.

Take `COc1cc2[nH]ncc2cc1Nc1ncnc2sc3c(c12)CC[C@H](C(=O)N1C[C@@H](C)O[C@H](C)C1)C3` [Example 211, [(2R,6R)-2,6-Dimethylmorpholin-4-yl]{(7S)-4-[(6-methoxy-1H-indazol-5-yl)amino]-5,6,7,8-tetrahydro[1]benzothieno[2,3-d]pyrimidin-7-yl}methanone]: the IC50 was determined as 0.2 nM.

As for `COc1cc2[nH]ncc2cc1Nc1ncnc2sc3c(c12)CC[C@H](C(=O)N1CCOC[C@H]1C)C3` [Example 31, {(7S)-4-[(6-Methoxy-1H-indazol-5-yl)amino]-5,6,7,8-tetrahydro[1]benzothieno[2,3-d]pyrimidin-7-yl}[(3R)-3-methylmorpholin-4-yl]methanone], the IC50 was 0.8 nM.

`COc1cc2[nH]ncc2cc1Nc1ncnc2sc3c(c12)CC[C@@H](C(=O)N1CCOCC1)C3` [Example 29, {(7R)-4-[(6-Methoxy-1H-indazol-5-yl)amino]-5,6,7,8-tetrahydro[1]benzothieno[2,3-d]pyrimidin-7-yl}(morpholin-4-yl)methanone]: the 50% inhibitory concentration (IC50) is 8.7 nM.

Regarding `CCOc1cc2[nH]ncc2cc1Nc1ncnc2sc3c(c12)CC[C@H](C(=O)N1CCCC1)C3` [Example 67, {(7S)-4-[(6-Ethoxy-1H-indazol-5-yl)amino]-5,6,7,8-tetrahydro[1]benzothieno[2,3-d]pyrimidin-7-yl}(pyrrolidin-1-yl)methanone], the IC50 was determined as 0.3 nM.

In the case of `COc1cc2[nH]ncc2cc1Nc1ncnc2sc3c(c12)CC[C@H](C(=O)N(C)OC)C3` [Example 198, (7S)—N-Methoxy-4-[(6-methoxy-1H-indazol-5-yl)amino]-N-methyl-5,6,7,8-tetrahydro[1]benzothieno[2,3-d]pyrimidine-7-carboxamide], the IC50 amounted to 0.2 nM.

For the molecule `CN1CCN(C(=O)[C@H]2CCc3c(sc4ncnc(Nc5ccc6[nH]ncc6c5)c34)C2)CC1` [Example 14, [(7S)-4-(1H-Indazol-5-ylamino)-5,6,7,8-tetrahydro[I]benzothieno[2,3-d]pyrimidin-7-yl](4-methylpiperazin-1-yl)methanone], the half-maximal inhibitory concentration (IC50) turned out to be 5.5 nM.

On to `CC(C)Oc1cc2[nH]ncc2cc1Nc1ncnc2sc3c(c12)CC[C@H](C(=O)N1CC(N(C)C)C1)C3` [Example 219, [3-(Dimethylamino)azetidin-1-yl][(7S)-4-{[6-(propan-2-yloxy)-1H-indazol-5-yl]amino}-5,6,7,8-tetrahydro[1]benzothieno[2,3-d]pyrimidin-7-yl]methanone], for which the concentration for half-maximal inhibition (IC50) worked out at 0.2 nM.

Take `CC(C)Oc1cc2[nH]ncc2cc1Nc1ncnc2sc3c(c12)CC[C@H](C(=O)N1CCOC[C@H]1C)C3` [Example 85, [(3R)-3-Methylmorpholin-4-yl][(7S)-4-{[6-(propan-2-yloxy)-1H-indazol-5-yl]amino}-5,6,7,8-tetrahydro[1]benzothieno[2,3-d]pyrimidin-7-yl]methanone]: the concentration for half-maximal inhibition (IC50) was 0.6 nM.

On to `COc1cc2[nH]ncc2cc1Nc1ncnc2sc3c(c12)CC[C@H](C(=O)N1CC[C@@H](N(C)C)C1)C3` [Example 179, [(3R)-3-(Dimethylamino)pyrrolidin-1-yl]{(7S)-4-[(6-methoxy-1H-indazol-5-yl)amino]-5,6,7,8-tetrahydro[1]benzothieno[2,3-d]pyrimidin-7-yl}methanone], for which the IC50 came out at 0.4 nM.

Regarding `CCOC(=O)NCCOc1cc2[nH]ncc2cc1Nc1ncnc2sc3c(c12)CC[C@H](C(=O)N(C)C)C3` [Example 262, Ethyl {2-[(5-{[(7S)-7-(dimethylcarbamoyl)-5,6,7,8-tetrahydro[1]benzothieno[2,3-d]pyrimidin-4-yl]amino}-1H-indazol-6-yl)oxy]ethyl}carbamate], the half-inhibitory concentration (IC50) stood at 0.2 nM.

Turning to `CN(C)C(=O)[C@H]1CCc2c(sc3ncnc(Nc4cc5cn[nH]c5cc4OC4CCOCC4)c23)C1` [Example 200, (7S)—N,N-Dimethyl-4-{[6-(tetrahydro-2H-pyran-4-yloxy)-1H-indazol-5-yl]amino}-5,6,7,8-tetrahydro[1]benzothieno[2,3-d]pyrimidine-7-carboxamide], the IC50 amounted to 1.6 nM.

The assay is the same for the next values; noted with them: Table 2; ratio of the IC50-value of an R-enantiomer and its corresponding S-enantiomer.
For the molecule `CC(C)Oc1cc2[nH]ncc2cc1Nc1ncnc2sc3c(c12)CC[C@H](C(=O)N1CC2(COC2)C1)C3` [Example 88, 2-Oxa-6-azaspiro[3.3]hept-6-yl[(7S)-4-{[6-(propan-2-yloxy)-1H-indazol-5-yl]amino}-5,6,7,8-tetrahydro[1]benzothieno[2,3-d]pyrimidin-7-yl]methanone], the “Activity-Ratio MKNK1” value was 15.0.

For `CC(C)Oc1cc2[nH]ncc2cc1Nc1ncnc2sc3c(c12)CC[C@H](C(=O)N(C)CC(F)F)C3` [Example 81, (7S)—N-(2,2-Difluoroethyl)-N-methyl-4-{[6-(propan-2-yloxy)-1H-indazol-5-yl]amino}-5,6,7,8-tetrahydro[1]benzothieno[2,3-d]pyrimidine-7-carboxamide], the “Activity-Ratio MKNK1” value amounted to 27.5.

In the case of `CN1CCN(C(=O)[C@H]2CCc3c(sc4ncnc(Nc5ccc6[nH]ncc6c5)c34)C2)CC1` [Example 14, [(7S)-4-(1H-Indazol-5-ylamino)-5,6,7,8-tetrahydro[I]benzothieno[2,3-d]pyrimidin-7-yl](4-methylpiperazin-1-yl)methanone], the “Activity-Ratio MKNK1” value worked out at 16.1.

Still in this assay, the particulars now being: Table 3; example numbers of WO2013/174744(A1), not of this patent; pure enantiomer from chiral HPLC, absolute configuration at amide 'R or S'; read-out: MKNK1 IC50.
As to “(7S)—N-Ethyl-4-(1H-indazol-5-ylamino)-N-methyl-5,6,7,8-tetrahydro[1]benzothieno[2,3-d]pyrimidine-7-carboxamide [Example 4]”, the IC50 is 11.7 nM.

Still in this assay, the particulars now being: Table 3; example numbers of WO2013/174744(A1), not of this patent; pure enantiomer from chiral HPLC, absolute configuration at amide 'S or R'; read-out: MKNK1 IC50.
For the molecule “(7S)—N-Ethyl-4-(1H-indazol-5-ylamino)-N-methyl-5,6,7,8-tetrahydro[1]benzothieno[2,3-d]pyrimidine-7-carboxamide [Example 4]”, the 50% inhibitory concentration (IC50) was found to be 6.5 nM.

The same assay, now with this note: Table 3; example numbers of WO2013/174744(A1); ratio of the IC50 values of the two enantiomers.
Turning to “(7S)—N-Ethyl-4-(1H-indazol-5-ylamino)-N-methyl-5,6,7,8-tetrahydro[1]benzothieno[2,3-d]pyrimidine-7-carboxamide [Example 4]”, the “Activity Ratio MKNK1” value was determined as 1.8.
